Assay results reported in paper PMC10535624, “Curcuminoid Chalcones: Synthesis, Stability, and New Neuroprotective and Sonosensitising Activities” (Pharmaceuticals, 2023).
Several values for one entry are separate records, joined by “and”; a condition that tells them apart may be missing. Equal entries are not always repeated.

Columns and labels:
COX-2 = target: T1, COX-2 (Homo sapiens, UniProt P35354); assay: Effect on COX-2 activity; type: biochemical; details: samples 3 mM/dm^3 in DMSO, 0.02 mL; mean ± SEM, n = 3
T1 sequence (P35354 18-604): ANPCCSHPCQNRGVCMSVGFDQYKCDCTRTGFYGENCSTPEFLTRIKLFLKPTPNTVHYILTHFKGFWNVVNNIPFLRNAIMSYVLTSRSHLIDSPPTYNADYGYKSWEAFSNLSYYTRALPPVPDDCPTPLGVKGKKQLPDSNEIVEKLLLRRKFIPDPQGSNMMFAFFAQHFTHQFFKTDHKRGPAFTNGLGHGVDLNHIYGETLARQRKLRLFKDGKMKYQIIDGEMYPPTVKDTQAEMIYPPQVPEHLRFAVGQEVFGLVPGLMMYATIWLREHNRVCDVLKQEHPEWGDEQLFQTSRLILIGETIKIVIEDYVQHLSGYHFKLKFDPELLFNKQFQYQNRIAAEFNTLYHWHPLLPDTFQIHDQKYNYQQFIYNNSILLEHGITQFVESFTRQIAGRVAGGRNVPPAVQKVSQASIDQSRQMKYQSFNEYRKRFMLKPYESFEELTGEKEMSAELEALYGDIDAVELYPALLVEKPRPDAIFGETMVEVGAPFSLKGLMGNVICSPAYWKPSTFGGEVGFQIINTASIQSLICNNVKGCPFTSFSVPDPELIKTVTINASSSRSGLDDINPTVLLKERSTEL

[1] = tested on: glutathione peroxidase (GPx); assay: Effect on GPx activity; type: biochemical; details: samples 3 mM/dm^3 in DMSO; mean ± SEM, n = 3
Method: (§1) We decided to extend the study by measuring the compounds’ ability to inhibit glutathione reductase (GR) and GPx activities, the human cells’ main endogenous enzymatic defence systems. Therefore, we checked the influence of some curcuminoid chalcones on GR and GPx using in vitro spectroscopic methods (Table 2). Moreover, the effects of curcuminoid chalcones on CAT activity were estimated (Table 2).
(§2) The samples were dissolved in DMSO (Sigma D4540) to obtain a concentration of 3 mM/dm^3.
(§3) The analyses were performed strictly as described by Studzińska-Sroka et al..

[2] = target: T2, glutathione reductase (GR) (Homo sapiens, UniProt P00390); assay: Effect on GR activity; type: biochemical; details: samples 3 mM/dm^3 in DMSO; mean ± SEM, n = 3
T2 sequence (P00390 44-522): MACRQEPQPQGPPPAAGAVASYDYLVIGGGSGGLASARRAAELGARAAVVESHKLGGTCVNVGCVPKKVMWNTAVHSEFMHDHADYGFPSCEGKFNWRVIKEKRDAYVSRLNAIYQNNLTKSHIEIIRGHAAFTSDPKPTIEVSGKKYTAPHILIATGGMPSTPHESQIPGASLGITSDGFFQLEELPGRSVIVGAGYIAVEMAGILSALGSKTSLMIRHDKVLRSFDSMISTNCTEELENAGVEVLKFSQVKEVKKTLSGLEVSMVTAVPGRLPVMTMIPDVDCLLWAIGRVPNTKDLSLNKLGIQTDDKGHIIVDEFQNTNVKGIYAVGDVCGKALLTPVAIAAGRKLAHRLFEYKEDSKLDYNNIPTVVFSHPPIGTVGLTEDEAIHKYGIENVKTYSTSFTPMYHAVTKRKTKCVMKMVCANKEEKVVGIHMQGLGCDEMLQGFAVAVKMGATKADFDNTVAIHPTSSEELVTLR
Method: as §1, §2, §3

AChE = AChE (Homo sapiens, UniProt P22303); assay: Effect on AChE activity (modified Ellman's method); type: biochemical; details: samples 3 mM/dm^3 in DMSO, 0.035 mL; mean ± SEM, n = 3
Chain of AChE (P22303 32-614): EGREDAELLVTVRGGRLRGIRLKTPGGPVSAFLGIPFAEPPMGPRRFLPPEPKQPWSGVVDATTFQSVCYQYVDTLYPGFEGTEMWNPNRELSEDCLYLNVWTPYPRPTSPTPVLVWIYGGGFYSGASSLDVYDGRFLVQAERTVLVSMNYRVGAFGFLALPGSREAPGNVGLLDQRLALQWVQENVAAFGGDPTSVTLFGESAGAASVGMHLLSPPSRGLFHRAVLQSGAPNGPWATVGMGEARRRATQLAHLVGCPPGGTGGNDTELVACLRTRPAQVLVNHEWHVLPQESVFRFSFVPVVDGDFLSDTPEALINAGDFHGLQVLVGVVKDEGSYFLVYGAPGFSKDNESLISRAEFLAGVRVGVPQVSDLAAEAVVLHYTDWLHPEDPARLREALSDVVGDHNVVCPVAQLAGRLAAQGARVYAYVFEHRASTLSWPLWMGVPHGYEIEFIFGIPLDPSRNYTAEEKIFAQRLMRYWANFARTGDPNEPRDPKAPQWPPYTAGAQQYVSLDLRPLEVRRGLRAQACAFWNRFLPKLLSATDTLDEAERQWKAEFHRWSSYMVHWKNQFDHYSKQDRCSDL
From the text: Neurodegenerative diseases are associated with the progressive damage of neurons. During the development of these diseases, there is a loss of nerve cells and a deficiency of […], serotonin, and norepinephrine levels. The ability to inhibit acetyl- (AChE) and butyrylcholinesterase (BChE) activities is seen, among others, in organophosphorus compounds, carbamate insecticides, phenoxyacetic pesticides, and hydrogen peroxide, as well as aliphatic ketones with the carbons C4–C9, e.g., 2,5-hexandione. AChE and BChE show differences in their susceptibility to inhibitors, behaviour in situations involving excess substrate, or substrate binding specificity. Unlike, other esterases, both enzymes hydrolyse choline esters at very high speeds. Thus, in our work, the modified Elman’s method was used to investigate the anti-AChE and anti-BChE effects of curcuminoid chalcone.
as §2
The analysis was performed strictly as described by Studzińska-Sroka et al., except that the volume of the tested samples added to the reaction mixture was 0.035 mL.

[3] = Stress test: oxidative degradation (RP-HPLC); type: physicochemical; details: for ICH Classification: oxidising environment
Method: Stock solutions of the test substances (2 or 6) were prepared by dissolving 1 mg of each test substance in 1.5 mL of a mixture of DMSO and MeOH (1:6, v/v). Then, 2 mL solutions of compounds 2 and 6 were prepared at ~30 μg/mL in a hydrogen peroxide solution (1, 3, and 10%). The solutions were placed in dark glass vials and encapsulated, and after an appropriate time (Table 1) the samples were diluted with methanol (1:1, v/v) and transferred to the chromatographic column.

[4] = Photostability in the solutions (RP-HPLC); type: physicochemical; details: MeOH solution; for % Decomposition / Ct: 1.2 × 10^6 lux·h, 22 h; for ICH Classification: light
Method: However, as a result of the action of light, both compounds degraded completely (Table 6, Figure 12). The study was conducted in methanol solutions, irradiated in quartz cuvettes, and in solutions protected from light (aluminium foil). […] During irradiation, the temperature in the Suntest chamber was 35 °C. It was, therefore, concluded that both compounds are photolabile in solutions. […] The visible peaks with Rt values of 6.3 (Figure 12a,c) and 4.4 min (Figure 12b,d) were impurities of compounds 2 and 6, respectively.
Stock solutions of the test substances (2 or 6) were prepared by dissolving 1 mg of each test substance in 1.5 mL of a mixture of DMSO and MeOH (1:6, v/v). Then, 5 mL solutions of the tested compounds (c ~ 15 µg/mL) in MeOH were prepared. […] Each of the samples (protected and irradiated) was transferred to the chromatographic column. Samples before irradiation were also subjected to chromatographic analysis (t = 0) (Table 2).

[5] = Hydroxyl radical antioxidant capacity (HORAC); details: samples 1 mg/mL DMSO; mean ± SEM, n = 3
[6] = protected from light (aluminium foil), 35 °C

With `COc1cc(C=CC(=O)c2ccccc2)ccc1OC(=O)C(C)c1ccc(CC(C)C)cc1` (centres unmarked) [Compound 2, 2-Methoxy-4-(3-oxo-3-phenylprop-1-en-1-yl)phenyl-2-(4-isobutylphenyl)-propionate] the “COX-2 Inhibition (%)” value (COX-2) was “-”, the “GPx Inhibition (%)” value [1] was 17.0 ± 3.4% and the “GPx activity (NADPH consumption rate)” value [1] was 33.8 ± 6.8 nmol Depleted NADPH/min. The “GR Inhibition (%)” value [2] was 27.1 ± 4.0%, the “GR activity (NADPH consumption rate)” value [2] was 1018 ± 150 nmol Depleted NADPH/min and the “AChE % (inhibition)” value (AChE) was 90.5 ± 4.2%. For the same compound, the “AChE, Equivalent Concentration of Reference Compound Magniflorine” value (AChE) was 0.34 ± 0.02 µg/mL, the “AChE, Equivalent Concentration of Reference Compound Rivastigmine” value (AChE) was 0.52 ± 0.02 µg/mL and the “% Decomposition” value ([3]; H2O2 1%, 30 min) was less than 0.5%. For the same compound, the Ct ([3]; H2O2 1%, 30 min) was 29.9 µg/mL, the “% Decomposition” value ([3]; H2O2 3%, 24 h) was less than 0.5% and the Ct ([3]; H2O2 3%, 24 h) was 29.8 µg/mL. For the same compound, the “% Decomposition” value ([3]; H2O2 10%, 24 h) was less than 0.5%, the Ct ([3]; H2O2 10%, 24 h) was 30.1 µg/mL and the “ICH Classification” value ([3]; H2O2 10%, 24 h) was “practically stable”. For the same compound, the “% Decomposition” value ([4]; not protected) was 100%, the Ct ([4]; not protected) was 0 µg/mL and the “% Decomposition” value [4, 6] was 68% and 68.2%. The Ct [4, 6] was 4.8 µg/mL, the “ICH Classification” value [4] was “Photolabile” and the “HORAC, Gallic Acid Equivalents” value [5] was 24.2 ± 2.3 µg/mL.
With `COc1ccc(C=CC(=O)c2ccccc2)cc1OC(=O)C(C)c1ccc(CC(C)C)cc1` (centres unmarked) [Compound 6, 2-Methoxy-5-(3-oxo-3-phenylprop-1-en-1-yl)phenyl-2-(4-isobutylphenyl)-propionate] the “COX-2 Inhibition (%)” value (COX-2) was “-”, the “GPx Inhibition (%)” value [1] was 17.4 ± 1.7% and the “GPx activity (NADPH consumption rate)” value [1] was 34.6 ± 3.3 nmol Depleted NADPH/min. The “GR Inhibition (%)” value [2] was “did not inhibit and -”, the “AChE % (inhibition)” value (AChE) was 73.7 ± 5.1% and the “AChE, Equivalent Concentration of Reference Compound Magniflorine” value (AChE) was 0.28 ± 0.02 µg/mL. For the same compound, the “AChE, Equivalent Concentration of Reference Compound Rivastigmine” value (AChE) was 0.42 ± 0.03 µg/mL, the “% Decomposition” value ([3]; H2O2 1%, 30 min) was less than 0.5% and the Ct ([3]; H2O2 1%, 30 min) was 29.7 µg/mL. For the same compound, the “% Decomposition” value ([3]; H2O2 3%, 24 h) was less than 0.5%, the Ct ([3]; H2O2 3%, 24 h) was 29.9 µg/mL and the “% Decomposition” value ([3]; H2O2 10%, 24 h) was less than 0.5%. The Ct ([3]; H2O2 10%, 24 h) was 30.0 µg/mL, the “ICH Classification” value ([3]; H2O2 10%, 24 h) was “practically stable” and the “% Decomposition” value ([4]; not protected) was 100%. The Ct ([4]; not protected) was 0 µg/mL, the “% Decomposition” value [4, 6] was 7.9% and the Ct [4, 6] was 13.8 µg/mL. For the same compound, the “ICH Classification” value [4] was “Photolabile” and the “HORAC, Gallic Acid Equivalents” value [5] was 20.4 ± 3.0 µg/mL.
